Experimental data reported in patent publication US7291641B2, “Derivatives of heterocycles with 5 members, their preparation and their use as medicaments” (Societe de Conseils de Recherches et d'Applications …, priority 1999, dated 2007).
Structures can show the parent of a compound that is named as a salt.

| SMILES | melting point |
| --- | --- |
| Cn1cc(-c2ccc(-c3ccccc3)cc2)nc1CNC(=O)OC(C)(C)C [Example 146, 4-(2-{[(tert-butoxycarbonyl)amino]methyl}-1-methyl-1H-imidazol-4-yl)-1,1′-biphenyl] | 208 to 210 °C |
| CC(C)(C)c1cc(-c2c[nH]c([C@@H](N)C3CCCCC3)n2)cc(C(C)(C)C)c1O (as salt: hydrochloride) [Example 316, 4-{2-[(S)-amino(cyclohexyl)methyl]-1H-imidazol-4-yl}-2,6-ditert-butylphenol] | 222 to 228 °C |
| Brc1cccc(-c2c[nH]c(CNC3CCCCC3)n2)c1 [Example 254, N-{[4-(3-bromophenyl)-1H-imidazol-2-yl]methyl}cyclohexanamine] | 202 to 204 °C |
| c1ccc(CC[C@@H](NCc2ccccc2)c2nc(-c3ccc(-c4ccccc4)cc3)c[nH]2)cc1 [Example 170, (1R)-N-benzyl-1-(4-[1,1′-biphenyl]-4-yl-1H-imidazol-2-yl)-3-phenyl-1-propanamine] | 210 to 213 °C |
| O=C(N[C@H](Cc1c[nH]c2ccccc12)c1nc(-c2ccccc2)cs1)c1ccccc1 [Example 101, N-[(1R)-2-(1H-indol-3-yl)-1-(4-phenyl-1,3-thiazol-2-yl)-ethyl]benzamide] | 108 to 110 °C |
| CC(C)(C)OC(=O)NC1(c2nc(-c3ccccc3)c[nH]2)CCCCC1 [Example 113, tert-butyl 1-(4-phenyl-1H-imidazol-2-yl)cyclohexylcarbamate] | 170 to 172 °C |
| O=C(NCCc1nc(-c2ccc(N3CCCC3)cc2)c[nH]1)OCc1ccccc1 [Example 390, benzyl 2-[4-(4-pyrrolidin-1-ylphenyl)-1H-imidazol-2-yl]ethylcarbamate] | 122.4 °C |
| CC(C)(C)OC(=O)NCc1nc(-c2ccccc2)c(-c2ccccc2)[nH]1 [Example 157, tert-butyl (4,5-diphenyl-1H-imidazol-2-yl)methylcarbamate] | 144 to 146 °C |
| O=C(NCCc1nc(-c2ccc(-c3ccccc3)cc2)c[nH]1)OCC1CCC1 [Example 285, cyclobutylmethyl 2-(4-[1,1′-biphenyl]-4-yl-1H-imidazol-2-yl)ethylcarbamate] | 144 to 145 °C |
| CC(C)(C)OC(=O)NCCc1nc(-c2ccc(-c3ccccc3)cc2)c[nH]1 [Example 152, 4-(2-{2-[(tert-butoxycarbonyl)amino]ethyl}-1H-imidazol-4-yl)-1,1′-biphenyl] | 140 to 142 °C |
| c1cc(C2CCCCC2)ccc1-c1c[nH]c([C@@H](NC2CCC2)C2CCCCC2)n1 (as salt: hydrochloride) [Example 275, N-{(S)-cyclohexyl[4-(4-cyclohexylphenyl)-1H-imidazol-2-yl]methyl}cyclobutanamine] | 190 to 192 °C |
| c1ccc(-c2c[nH]c([C@@H](NCC3CCCCC3)C3CCCCC3)n2)cc1 (as salt: hydrochloride) [Example 265, (S)-cyclohexyl-N-(cyclohexylmethyl)(4-phenyl-1H-imidazol-2-yl)methanamine] | 180 to 182 °C |
| Brc1cccc(-c2c[nH]c([C@@H](NCC3CCCCC3)C3CCCCC3)n2)c1 [Example 289, (S)-1-[4-(3-bromophenyl)-1H-imidazol-2-yl]-1-cyclohexyl-N-(cyclohexylmethyl)methanamine] | 134.3 °C |
| NCc1nc(-c2ccc(-c3ccccc3)cc2)cn1Cc1ccccc1 (as salt: hydrochloride) [Example 143, (1-benzyl-4-[1,1′-biphenyl]-4-yl-1H-imidazol-2-yl)methanamine] | 170 to 174 °C |
| N[C@H](Cc1c[nH]c2ccccc12)c1nc(-c2ccccc2)c(-c2ccccc2)[nH]1 (as salt: hydrochloride) | > 260 °C |
| CC(C)(C)OC(=O)N[C@H](CCc1ccccc1)c1nc(-c2ccc(-c3ccccc3)cc2)c[nH]1 [Example 167, 4-(2-{(1R)-1-[(tert-butoxycarbonyl)amino]-3-phenylpropyl}-1H-imidazol-4-yl)-1,1′-biphenyl] | 154 to 156 °C |
| O=C(NCCc1nc(-c2ccc(-c3ccccc3)cc2)c[nH]1)OCCc1ccccc1 [Example 391, 2-phenylethyl 2-[4-(1,1′-biphenyl-4-yl)-1H-imidazol-2-yl]ethylcarbamate] | 142 to 143 °C |

Further lines, results first:

| melting point | SMILES |
| --- | --- |
| 150 to 152 °C | CC(C)C[C@H](N)c1nc(-c2ccccc2)c[nH]1 (as salt: hydrochloride) [Example 56, (1S)-3-methyl-1-(4-phenyl-1H-imidazol-2-yl)-1-butanamine] |
| 192 °C | CCCCCCC(N)c1nc(-c2ccc(N(CC)CC)cc2)c[nH]1 (racemic) (as salt: hydrochloride) [Example 218, (R,S)-4-[2-(1-aminoheptyl)-1H-imidazol-4-yl]-N,N-diethylaniline] |
| 204 to 206 °C | CCN(CC)c1ccc(-c2c[nH]c([C@@H](NCC3CCCCC3)C3CCCCC3)n2)cc1 (as salt: hydrochloride) [Example 290, 4-(2-{(S)-cyclohexyl[(cyclohexylmethyl)amino]methyl}-1H-imidazol-4-yl)-N,N-diethylaniline] |
| 141 to 142 °C | CCCCCCC(NCc1ccccc1)c1nc(-c2cccc(OC)c2)c[nH]1 (racemic) [Example 216, (R,S)-N-benzyl-1-[4-(3-methoxyphenyl)-1H-imidazol-2-yl]-1-heptanamine] |
| 116 to 121 °C | CCCCOC(=O)NCCc1nc(-c2ccc(-c3ccccc3OC)cc2)c[nH]1 [Example 458, butyl 2-[4-(2′-methoxy-1,1′-biphenyl-4-yl)-1H-imidazol-2-yl]ethylcarbamate] |
| 142.6 °C | CCCCOC(=O)NCCc1nc(-c2ccc(-c3cccc(Cl)c3)cc2)c[nH]1 [Example 443, butyl 2-[4-(3′-chloro-1,1′-biphenyl-4-yl)-1H-imidazol-2-yl]ethylcarbamate] |
| 188 to 189 °C | CCCCCCC(NCc1ccccc1)c1nc(-c2ccc(C#N)cc2)c[nH]1 (racemic) [Example 217, (R,S)-4-{2-[1-(benzylamino)heptyl]-1H-imidazol-4-yl}benzonitrile] |
| 222 to 223 °C | N[C@H](c1nc(-c2ccc(F)c(F)c2)c[nH]1)C1CCCCC1 (as salt: hydrochloride) [Example 258, (S)-cyclohexyl[4-(3,4-difluorophenyl)-1H-imidazol-2-yl]-methanamine] |
| 231 to 232 °C | CCCCCCC(N)c1nc(-c2ccc(OC)cc2)c[nH]1 (racemic) (as salt: hydrochloride) [Example 190, (R,S)-1-[4-(4-methoxyphenyl)-1H-imidazol-2-yl]heptylamine] |
| 192 to 194 °C | CCCCCC(NCc1ccccc1)c1nc(-c2ccccc2)c[nH]1 (racemic) [Example 202, (R,S)-N-benzyl-1-(4-phenyl-1H-imidazol-2-yl)-1-hexanamine] |
| 167.9 °C | CCCCOC(=O)NCCc1nc(-c2ccc(-c3ccc(SC)cc3)cc2)c[nH]1 [Example 397, butyl 2-{4-[4′-(methylthio)-1,1′-biphenyl-4-yl]-1H-imidazol-2-yl}ethylcarbamate] |
| 200 to 202 °C | CC(C)CCCC(N)c1nc(-c2cccc(Br)c2)c[nH]1 (racemic) (as salt: hydrochloride) [Example 233, (R,S)-1-[4-(3-bromophenyl)-1H-imidazol-2-yl]-5-methyl-1-hexanamine] |
